Patent publication US20230348426A1, “OXOPYRROLIDINE FPR2 AGONISTS” (Bristol-Myers Squibb Company, priority 2020, published 2023)

What was measured:
human FPR1 = human FPR1 (Homo sapiens (Human), UniProt P21462); assay: FPR1 cyclic adenosine monophosphate (cAMP) assay; type: cell-based; settings: CHO cells overexpressing human FPR1; forskolin 10 µM; inhibition of cAMP production; read-out: hFPR1 cAMP EC50
Method in brief: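 Human FPR1-expressing CHO cells were used at 4,000 per well, with compound at 0.020 nM–100 µM in 1% DMSO. Potency came from a 4-parameter logistic fit.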

human FPR2 = human FPR2 (Homo sapiens (Human), UniProt P25090); assay: FPR2 cyclic adenosine monophosphate (cAMP) assay; type: cell-based; settings: CHO cells overexpressing human FPR2; forskolin 5 µM; inhibition of cAMP production; read-out: hFPR2 cAMP2 EC50
Method in brief: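 Inhibition of forskolin-driven (5 µM) cAMP, with 200 µM IBMX, measured in human FPR2-expressing CHO cells, 2,000 per well, 30 min at room temperature; compounds tested 0.020 nM to 100 µM in 1% DMSO. HTRF 665/590 ratio converted to cAMP via calibration curve, then 4-parameter fit.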

Sequence of human FPR1 (P21462 whole entry): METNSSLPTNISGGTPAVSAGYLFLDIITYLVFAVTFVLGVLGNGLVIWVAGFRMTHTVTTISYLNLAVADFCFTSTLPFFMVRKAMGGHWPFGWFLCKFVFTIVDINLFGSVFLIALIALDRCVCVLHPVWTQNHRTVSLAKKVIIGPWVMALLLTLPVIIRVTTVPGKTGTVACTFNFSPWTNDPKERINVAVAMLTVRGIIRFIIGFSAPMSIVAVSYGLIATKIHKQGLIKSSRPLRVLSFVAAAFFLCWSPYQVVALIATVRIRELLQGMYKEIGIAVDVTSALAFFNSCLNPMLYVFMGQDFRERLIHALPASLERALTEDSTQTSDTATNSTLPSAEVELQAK
Sequence of human FPR2 (P25090 whole entry): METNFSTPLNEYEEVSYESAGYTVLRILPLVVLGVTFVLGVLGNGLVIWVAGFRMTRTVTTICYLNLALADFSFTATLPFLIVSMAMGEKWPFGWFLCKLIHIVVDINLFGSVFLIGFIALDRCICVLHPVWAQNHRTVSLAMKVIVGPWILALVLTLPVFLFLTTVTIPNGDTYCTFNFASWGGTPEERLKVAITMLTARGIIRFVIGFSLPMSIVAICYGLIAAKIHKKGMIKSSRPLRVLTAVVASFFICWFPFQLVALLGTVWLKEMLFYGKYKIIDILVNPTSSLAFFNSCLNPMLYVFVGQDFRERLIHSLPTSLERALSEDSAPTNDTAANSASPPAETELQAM

SMILES | EC50 (human FPR1) | EC50 (human FPR2)
COc1cc(F)c([C@@H]2CN(c3nc(N4C(=O)C5CCCC54)ccc3F)C(=O)[C@H]2NC(=O)c2ccc(OC(F)F)cc2)c(F)c1 (some centres unmarked) [Example 119] | 67 nM | 3.1 nM
COc1ccc([C@@H]2CN(c3cccn(CC(F)F)c3=O)C(=O)[C@H]2NC(=O)c2ccc(OC(F)(F)F)cc2)cc1 [Example 120] | 13 nM | 3.1 nM
COc1ccc([C@@H]2CN(c3c(C)ccn(CC(F)F)c3=O)C(=O)[C@H]2NC(=O)c2ccc(OC(F)(F)F)cc2)cc1 [Example 121] | 1.4 nM | 3.1 nM
COc1cc(F)c([C@@H]2CN(c3nc(NC4CCOC4)ccc3F)C(=O)[C@H]2NC(=O)c2ccc(OC(F)F)cc2)c(F)c1 (some centres unmarked) [Example 122] | 1080 nM | 3.2 nM
COc1cc(F)c([C@@H]2CN(c3cccnc3OC(F)F)C(=O)[C@H]2NC(=O)c2ccc(Cl)cc2)c(F)c1 [Example 123] | 41 nM | 3.2 nM
COc1cc(F)c([C@@H]2CN(c3nc(N4CC(C)OCC4=O)ccc3F)C(=O)[C@H]2NC(=O)c2ccc(OC(F)(F)F)cc2)c(F)c1 (some centres unmarked) [Example 124] | 47 nM | 3.3 nM
COc1cc(F)c([C@@H]2CN(c3nccc(NC4CCOC4)c3C(F)(F)F)C(=O)[C@H]2NC(=O)c2ccc(Cl)cc2)c(F)c1 (some centres unmarked) [Example 125] | 1100 nM | 3.3 nM
COc1cc(F)c([C@H]2[C@H](NC(=O)c3ccc(OC(F)F)cc3)C(=O)N(c3ncccc3OC(C)C)[C@H]2C)c(F)c1 [Example 126] | 2300 nM | 3.3 nM
COCCn1cccc(N2C(=O)[C@@H](NC(=O)c3ccc(OC(F)F)cc3)[C@H](c3c(F)cc(OC)cc3F)[C@H]2C)c1=O [Example 127] | 390 nM | 3.3 nM
CCn1cccc(N2C[C@@H](c3ccc(OC)cc3)[C@H](NC(=O)c3ccc(OC(F)(F)F)cc3)C2=O)c1=O [Example 128] | 6.3 nM | 3.3 nM
COc1cc(F)c([C@@H]2CN(c3nccc(NCC(C)O)c3C(F)(F)F)C(=O)[C@H]2NC(=O)c2ccc(OC(F)F)cc2)c(F)c1 (some centres unmarked) [Example 129] | 380 nM | 3.3 nM
COc1cc(F)c([C@@H]2CN(c3cccn(CCO)c3=O)C(=O)[C@H]2NC(=O)c2ccc(Cl)cc2)c(F)c1 [Example 130] | 340 nM | 3.4 nM
COCC(C(=O)N1CCOCC1)n1ccc(C)c(N2C[C@@H](c3c(F)cc(OC)cc3F)[C@H](NC(=O)c3ccc(OC(F)F)cc3)C2=O)c1=O (some centres unmarked) [Example 131] | 0.8 nM | 3.4 nM
COc1ccc([C@@H]2CN(c3c(C)ccn(C4CCOC4)c3=O)C(=O)[C@H]2NC(=O)c2ccc(OC(F)(F)F)cc2)cc1 (some centres unmarked) [Example 132] | 0.8 nM | 3.4 nM
COCC(CO)n1cccc(N2C[C@@H](c3c(F)cc(OC)cc3F)[C@H](NC(=O)c3ccc(OC(F)F)cc3)C2=O)c1=O (some centres unmarked) [Example 133] | 12 nM | 3.4 nM
COCC(C(=O)N(C)C)n1cccc(N2C[C@@H](c3c(F)cc(OC)cc3F)[C@H](NC(=O)c3ccc(OC(F)(F)F)cc3)C2=O)c1=O (some centres unmarked) [Example 134] | 1.6 nM | 3.5 nM

SMILES | EC50 (human FPR1) | EC50 (human FPR2)
COc1cc(F)c([C@@H]2CN(c3nc(N4CCC(O)C4=O)ccc3F)C(=O)[C@H]2NC(=O)c2ccc(OC(F)F)cc2)c(F)c1 (some centres unmarked) [Example 135] | 58 nM | 3.5 nM
COCC(CO)n1cccc(N2C[C@@H](c3ccc(OC)cc3)[C@H](NC(=O)c3ccc(OC(F)(F)F)cc3)C2=O)c1=O (some centres unmarked) [Example 136] | 2.2 nM | 3.5 nM
COCCn1cccc(N2C[C@@H](c3c(F)cc(OC)cc3F)[C@H](NC(=O)c3ccc(Cl)cc3)C2=O)c1=O [Example 137] | 190 nM | 3.5 nM
COc1cc(F)c([C@@H]2CN(c3cccn(CC(C)OC)c3=O)C(=O)[C@H]2NC(=O)c2ccc(OC(F)(F)F)cc2)c(F)c1 (some centres unmarked) [Example 138] | 1.7 nM | 3.5 nM
COc1cc(F)c([C@@H]2CN(c3ccc(CO)[nH]c3=O)C(=O)[C@H]2NC(=O)c2ccc(OC(F)F)cc2)c(F)c1 [Example 139] | 570 nM | 3.5 nM
COc1cc(F)c([C@@H]2CN(c3ccc(C)n(C)c3=O)C(=O)[C@H]2NC(=O)c2ccc(Cl)cc2)c(F)c1 [Example 140] | 610 nM | 3.5 nM
COc1cc(F)c([C@@H]2CN(c3cccn(CC(C)O)c3=O)C(=O)[C@H]2NC(=O)c2ccc(OC(F)F)cc2)c(F)c1 (some centres unmarked) [Example 141] | 29 nM | 3.6 nM
COCC(CO)n1cccc(N2C[C@@H](c3c(F)cc(OC)cc3F)[C@H](NC(=O)c3ccc(OC(F)F)cc3)C2=O)c1=O (some centres unmarked) [Example 142] | 87 nM | 3.6 nM
COc1ccc([C@@H]2CN(c3cccn(CCO)c3=O)C(=O)[C@H]2NC(=O)c2ccc(OC(F)F)cc2)c(F)c1 [Example 143] | 53 nM | 3.6 nM
COCC(CO)n1cccc(N2C[C@@H](c3c(F)cc(OC)cc3F)[C@H](NC(=O)c3ccc(OC(F)(F)F)cc3)C2=O)c1=O (some centres unmarked) [Example 144] | 23.1 nM | 3.6 nM
COc1cc(F)c([C@@H]2CN(c3cccn(CC(F)F)c3=O)C(=O)[C@H]2NC(=O)c2ccc(OC(F)F)cc2)c(F)c1 [Example 145] | 8.2 nM | 3.7 nM
COc1cc(F)c([C@@H]2CN(c3nc(NC(C)=O)ccc3F)C(=O)[C@H]2NC(=O)c2ccc(OC(F)F)cc2)c(F)c1 [Example 146] | 150 nM | 3.8 nM
COc1cc(F)c([C@@H]2CN(c3cccn(CC(OC)C(F)(F)F)c3=O)C(=O)[C@H]2NC(=O)c2ccc(OC(F)(F)F)cc2)c(F)c1 (some centres unmarked) [Example 147] | 2.2 nM | 3.8 nM
COc1cc(F)c([C@@H]2CN(c3cccn(CC(F)F)c3=O)C(=O)[C@H]2NC(=O)c2ccc(OC(F)(F)F)cc2)c(F)c1 [Example 148] | 19 nM | 3.8 nM
COc1cc(F)c([C@@H]2CN(c3c(C)ccn(CC4CC4)c3=O)C(=O)[C@H]2NC(=O)c2ccc(OC(F)(F)F)cc2)c(F)c1 [Example 151] | 0.5 nM | 3.9 nM

Next, values leading:

EC50 (human FPR1) | EC50 (human FPR2) | SMILES
460 nM | 3.9 nM | COc1cc(F)c([C@@H]2CN(c3ccnc(N4C[C@@H](C)N(C)[C@@H](C)C4)c3C(F)(F)F)C(=O)[C@H]2NC(=O)c2ccc(OC(F)F)cc2)c(F)c1 [Example 152]
4.2 nM | 4 nM | COCC(CO)n1cccc(N2C[C@@H](c3c(F)cc(OC)cc3F)[C@H](NC(=O)c3ccc(OC(F)(F)F)cc3)C2=O)c1=O (some centres unmarked) [Example 153]
3.3 nM | 4 nM | COCC(CO)n1cccc(N2C[C@@H](c3ccc(Cl)cc3)[C@H](NC(=O)c3ccc(OC(F)(F)F)cc3)C2=O)c1=O (some centres unmarked) [Example 154]
9.3 nM | 4 nM | COc1cc(F)c([C@@H]2CN(c3cccn(CC(O)C(F)(F)F)c3=O)C(=O)[C@H]2NC(=O)c2ccc(OC(F)(F)F)cc2)c(F)c1 (some centres unmarked) [Example 155]
1.3 nM | 4 nM | COc1cc(F)c([C@@H]2CN(c3cccn(CC(OC)C(F)(F)F)c3=O)C(=O)[C@H]2NC(=O)c2ccc(OC(F)(F)F)cc2)c(F)c1 (some centres unmarked) [Example 156]
100 nM | 4 nM | COc1cc(F)c([C@@H]2CN(c3cccnc3OC3CCOC3)C(=O)[C@H]2NC(=O)c2ccc(OC(F)F)cc2)c(F)c1 (some centres unmarked) [Example 157]
74 nM | 4.1 nM | CCn1cccc(N2C[C@@H](c3c(F)cc(OC)cc3F)[C@H](NC(=O)c3ccc(C(F)(F)F)cc3)C2=O)c1=O [Example 159]
1100 nM | 4.1 nM | COc1cc(F)c([C@@H]2CN(c3nccc(N4C[C@@H]5C[C@H]4CN5C)c3C#N)C(=O)[C@H]2NC(=O)c2ccc(Cl)cc2)c(F)c1 [Example 160]
3.4 nM | 4.1 nM | COc1cc(F)c([C@@H]2CN(c3cccn(CC(OC)C(F)(F)F)c3=O)C(=O)[C@H]2NC(=O)c2ccc(OC(F)F)cc2)c(F)c1 (some centres unmarked) [Example 161]
9.4 nM | 4.1 nM | COCCn1cccc(N2C[C@@H](c3ccc(Cl)cc3)[C@H](NC(=O)c3ccc(OC(F)F)cc3)C2=O)c1=O [Example 162]
1200 nM | 4.2 nM | COc1cc(F)c([C@@H]2CN(c3nccc(NC4CC4)c3C(F)(F)F)C(=O)[C@H]2NC(=O)c2ccc(Cl)cc2)c(F)c1 [Example 163]
290 nM | 4.2 nM | COc1cc(F)c([C@@H]2CN(c3cccn(CCN4CC5(COC5)C4)c3=O)C(=O)[C@H]2NC(=O)c2ccc(OC(F)F)cc2)c(F)c1 [Example 164]
1.7 nM | 4.2 nM | CCn1ccc(C)c(N2C[C@@H](c3ccc(OC)cc3F)[C@H](NC(=O)c3ccc(OC(F)F)cc3)C2=O)c1=O [Example 165]
2300 nM | 4.3 nM | COc1cc(F)c([C@@H]2CN(c3nccc(NCC(C)(C)O)c3C(F)(F)F)C(=O)[C@H]2NC(=O)c2ccc(Cl)cc2)c(F)c1 [Example 166]
> 10000 nM | 4.3 nM | COc1cc(F)c([C@@H]2CN(c3nccc(N4C[C@@H](C)N(C)[C@@H](C)C4)c3C#N)C(=O)[C@H]2NC(=O)c2ccc(Cl)cc2)c(F)c1 [Example 167]
1600 nM | 4.3 nM | COc1cc(F)c([C@@H]2CN(c3cc(C(F)(F)F)cn(C)c3=O)C(=O)[C@H]2NC(=O)c2ccc(OC(F)F)cc2)c(F)c1 [Example 168]
21 nM | 4.3 nM | CCn1cccc(N2C[C@@H](c3c(F)cc(OC)cc3F)[C@H](NC(=O)c3ccc(OC(F)F)cc3)C2=O)c1=O [Example 169]
0.9 nM | 4.4 nM | CCn1ccc(C)c(N2C[C@@H](c3ccc(OC)cc3)[C@H](NC(=O)c3ccc(OC(F)(F)F)cc3)C2=O)c1=O [Example 170]
